Test results published in patent publication US9962383B2, “Compounds, compositions and methods of agelastatin alkaloids” (Massachusetts Institute of Technology, priority 2013, dated 2018).

Legend:
HeLa = assay: 48-hour IC50 by SRB, HeLa cervical carcinoma cells; assay type: cell-based, human
Experimental: (§1) Cells were grown in media supplemented with fetal bovine serum (FBS) and antibiotics (100 μg/mL penicillin and 100 U/mL streptomycin). […] Cells were incubated at 37° C. in a 5% CO2, 95% humidity atmosphere.
(§2) Adherent cells (HeLa, A549, BT549, and IMR90) were added into 96-well plates (5,000 cells/well for HeLa cell line; 2,000 cells/well for A549, BT549, and IMR90 cell lines) in 100 μL media and were allowed to adhere for 2-3 hours. Compounds were solubilized in DMSO as 100× stocks, added directly to the cells (100 μL final volume), and tested over a range of concentrations (1 nM to 10 μM) in triplicate (1% DMSO final) on a half-log scale. DMSO and cell-free wells served as the live and dead control, respectively. […] Briefly, media was removed from the plate, and cells were fixed by the addition of 100 μL cold 10% trichloroacetic acid in water. After incubating at 4° C. for 1 h, the plates were washed in water and allowed to dry. Sulforhordamine B was added as a 0.057% solution in 1% acetic acid (100 μL), and the plates were incubated at room temperature for 30 min, washed in 1% acetic acid, and allowed to dry. […] IC50 values were determined from three or more independent experiments using TableCurve (San Jose, Calif.).

BT549 = assay: 48-hour IC50 by SRB, BT549 breast carcinoma cells; assay type: cell-based, human
Experimental: as §1, §2

Daudi = assay: 48-hour IC50 by MTS, Daudi Burkitt's lymphoma cells; assay type: cell-based, human
Experimental: as §1
(§3) In a 96-well plate, compounds were pre-added as DMSO stocks (1% final) in triplicate to achieve final concentrations of 1 nM to 10 μM on a half log scale. DMSO and cell-free wells served as the live and dead control, respectively. […] IC50 values were determined from three or more independent experiments using TableCurve (San Jose, Calif.).

CA46 = assay: 48-hour IC50 by MTS, CA46 Burkitt's lymphoma cells; assay type: cell-based, human
Experimental: as §1, §3

Human Erythrocytes = assay: Hemolysis assay using human erythrocytes; assay type: cell-based; details: hemolysis after 2 h
Experimental: FIG. 1. Hemolytic activity of (−)-agelastatins A-F and advanced intermediates. Compounds were tested at 333 μM and hemolysis was evaluated after 2 h. DMSO and water served as the negative and positive controls for hemolysis, respectively. Error bars represent standard deviation of the mean, n=3.
To prepare the erythrocytes, 0.1 mL of human blood was centrifuged (10,000 g, 2 min). The pellet was washed three times with saline (0.9% NaCl) via gentle resuspension and centrifugation (10,000 g, 2 min). Following the final wash, the erythrocytes were resuspended in 0.4 mL red blood cell (RBC) buffer (10 mM Na2HPO4, 150 mM NaCl, 1 mM MgCl2, pH 7.4).
DMSO stocks of compounds were added to 0.5 mL tubes in singlicate (1 μL, 3.3% DMSO final). The stocks were diluted with 19 μL RBC buffer. Positive control tubes contained DMSO in water, and negative control tubes contained DMSO in RBC buffer. A suspension of washed erythrocytes (10 μL) was added to each tube, and samples were incubated at 37° C. for 2 hours. Samples were centrifuged (10,000 g, 2 min), and the supernatant was transferred to a clear, sterile 384-well plate. The absorbance of the supernatants was measured at λ=540 nm, and percent hemolysis was calculated relative to the average absorbance values measured for the controls.

[1] = system: procaspase-3 and PARP-1 cleavage; assay: Western blot analysis of procaspase-3 and PARP-1 cleavage in U-937 cells; assay type: cell-based, human; details: 24 hours
Experimental: FIG. 2. […] Western blot analysis of procaspase-3 and PARP-1 cleavage at 24 hours in U-937 cells using β-actin as loading control. Compounds were tested at indicated concentrations and STS (10 nM); C3=caspase-3; PARP=poly(ADP-ribose) polymerase 1; PC3=procaspase-3; STS=staurosporine.

blood cancer cells = assay: Activity against human blood cancer cell lines; assay type: cell-based
Experimental: Based on the surprising and exceptional potency of (−)-agelastatins A (1) and D (4) against U-937 cells relative to the other cell lines tested, five additional blood cancer cell lines were tested for their sensitivity to the agelastatin alkaloids. These cell lines spanned a variety of cancer types (CEM, acute lymphoblastic leukemia; Jurkat, acute T-cell leukemia; Daudi, Burkitt's lymphoma; HL-60, acute promyelocytic leukemia; CA46, Burkitt's lymphoma). After a 48-hour incubation, the ability of (−)-agelastatins A-F (1-6) to induce cell death was evaluated. […] The same trends in potency observed for the various agelastatins with the general cell panel (Table 3) were also observed.
In a 96-well plate, compounds were pre-added as DMSO stocks (1% final) in triplicate to achieve final concentrations of 1 nM to 10 μM on a half log scale. DMSO and cell-free wells served as the live and dead control, respectively. […] After 48 h, cell viability was assessed by adding 20 μL of a PMS/MTS solution (A. H. Cory, T. C. Owen, J. A. Barltrop, J. G. Cory, Cancer Commun., 1991, 3, 207) to each well, allowing the dye to develop at 37° C. until the live control had processed MTS, and reading the absorbance at λ=490 nm. IC50 values were determined from three or more independent experiments using TableCurve (San Jose, Calif.).

**Q.** What does the source list for `CN1C(=O)N[C@H]2[C@@H]3NC(=O)c4ccc(Br)n4[C@@H]3C[C@]21O` [(−)-1, (−)-agelastatin A]?
**A.** IC50 (HeLa): 708 ± 90 nM; IC50 (BT549): 278 ± 76 nM; IC50 (Daudi): 20 ± 3 nM; IC50 (CA46): 187 ± 71 nM; nonspecific hemolysis of red blood cells (Human Erythrocytes; compounds at 333 μM): none; concentration without affecting normal red blood cells (Human Erythrocytes): > 333 µM; activation of procaspase-3 to active caspase-3 and cleavage of PARP-1 [1]: dose-dependent activation; sensitivity of five additional blood cancer cell lines, in words (blood cancer cells; CEM, Jurkat, Daudi, HL-60, CA46, 48-hour incubation): remarkable sensitivity; IC50 (blood cancer cells; range over blood cancer cell lines, read-out: potency against blood cancer cells): 20 to 190 nM
